According to PubChem BioAssay AID248 (DTP/NCI, 2004):
Several values for one entry are separate records, joined by “and”; a condition that tells them apart may be missing. Equal entries are not always repeated. Inconclusive results and toxic doses are left out. No stated cut-off is given here; in the data, active means T/C of 150% or more; inactive means T/C below 125%.

Test system: L1210 leukemia ip in BDF1 mice, survival T/C
Experiment: NCI In Vivo Anticancer Drug Screen. Data for tumor model L1210 Leukemia (intraperitoneal) in B6D2F1 (BDF1) mice
Details: endpoint: mean survival time, higher = longer survival
Summary of the method: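 Tumor cells were implanted, animals were treated, and survival was followed. The result divides the treated measurement by the vehicle-control measurement.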

[1] = dose: 100.0 mg/kg/injection, schedule: Q04DX002 (ip), vehicle: saline with Tween-80
[2] = dose: 200.0 mg/kg/injection, schedule: Q04DX002 (ip), vehicle: saline with Tween-80
[3] = dose: 100.0 mg/kg/injection, schedule: Q04DX003 (ip), vehicle: saline with Tween-80
[4] = dose: 200.0 mg/kg/injection, schedule: Q04DX003 (ip), vehicle: saline with Tween-80
[5] = dose: 400.0 mg/kg/injection, schedule: Q04DX003 (ip), vehicle: saline with Tween-80
[6] = dose: 100.0 mg/kg/injection, schedule: Q01DX009 (ip), vehicle: saline with Tween-80
[7] = dose: 200.0 mg/kg/injection, schedule: Q01DX009 (ip), vehicle: saline with Tween-80
[8] = dose: 400.0 mg/kg/injection, schedule: Q01DX009 (ip), vehicle: saline with Tween-80
[9] = dose: 100.0 mg/kg/injection, schedule: Q01DX009 (ip), vehicle: Klucel (hydroxypropylcellulose) (HPC)
[10] = dose: 100.0 mg/kg/injection, schedule: Q04DX003 (ip), vehicle: Klucel (hydroxypropylcellulose) (HPC)
[11] = dose: 200.0 mg/kg/injection, schedule: Q01DX009 (ip), vehicle: Klucel (hydroxypropylcellulose) (HPC)
[12] = dose: 200.0 mg/kg/injection, schedule: Q04DX003 (ip), vehicle: Klucel (hydroxypropylcellulose) (HPC)
[13] = dose: 400.0 mg/kg/injection, schedule: Q01DX009 (ip), vehicle: Klucel (hydroxypropylcellulose) (HPC)
[14] = dose: 400.0 mg/kg/injection, schedule: Q04DX003 (ip), vehicle: Klucel (hydroxypropylcellulose) (HPC)
[15] = dose: 100.0 mg/kg/injection, schedule: Q01DX001 (ip), vehicle: saline
[16] = dose: 200.0 mg/kg/injection, schedule: Q01DX001 (ip), vehicle: saline

Measured: T/C

CSc1ccc(NC(=O)Nc2ccc([N+](=O)[O-])cc2C)cc1
inactive: [1] 98 % of control | [2] 95 % of control | dose: 400.0 mg/kg/injection, schedule: Q04DX002 (ip), vehicle: saline with Tween-80 91 % of control

O=C1OC(=O)C2C3CC(C12)C1C2C=CC(C2)C31 (stereo unspecified)
inactive: [3] 91 % of control | [4] 95 % of control | [5] 103 % of control

c1ccc(Sc2ccc3ccccc3c2)cc1
inactive: [6] 103 % of control | [7] 97 % of control | [8] 93 % of control

O=C1OC(c2ccccc2)=N/C1=C/c1cccs1
inactive: [9] 104 % of control | [10] 98 % of control | [11] 97 % of control | [12] 104 % of control | [13] 101 % of control | [14] 106 % of control

CCC/C(=N\NC(N)=O)C(OC)OC
inactive: dose: 100.0 mg/kg/injection, schedule: Q01DX001 (ip), vehicle: other 94 % of control | dose: 200.0 mg/kg/injection, schedule: Q01DX001 (ip), vehicle: other 105 % of control | dose: 400.0 mg/kg/injection, schedule: Q01DX001 (ip), vehicle: other 92 % of control

O=C1OC(Cl)(C(Cl)(Cl)Cl)C(=O)OC1(Cl)C(Cl)(Cl)Cl (stereo unspecified)
inactive: dose: 100.0 mg/kg/injection, schedule: Q04DX003 (ip), vehicle: acetone 98 % of control | dose: 200.0 mg/kg/injection, schedule: Q04DX003 (ip), vehicle: acetone 98 % of control | dose: 400.0 mg/kg/injection, schedule: Q04DX003 (ip), vehicle: acetone 96 % of control

CCOC(=O)N1C(c2ccccc2)N(c2ccccc2)C(c2ccccc2)N1C(=O)OCC (stereo unspecified)
inactive: dose: 50.0 mg/kg/injection, schedule: Q01DX001 (ip), vehicle: saline 108 % of control | [15] 103 % of control | [16] 108 % of control | dose: 400.0 mg/kg/injection, schedule: Q01DX001 (ip), vehicle: saline 103 % of control

CCCCCCCCCCCCCCCCCCNC(=O)Nc1cccc(NC(C)=O)c1
inactive: [9] 91 % of control | [11] 88 % of control | [13] 98 % of control

COc1cccc(/C(C#N)=C\O)c1
inactive: [1] 104 % of control | [2] 96 % of control

CCOC(=O)NC(C)(C)Cc1ccccc1
inactive: dose: 25.0 mg/kg/injection, schedule: Q01DX009 (ip), vehicle: saline with Tween-80 91 % of control | dose: 25.0 mg/kg/injection, schedule: Q04DX003 (ip), vehicle: saline with Tween-80 101 % of control | dose: 50.0 mg/kg/injection, schedule: Q01DX009 (ip), vehicle: saline with Tween-80 98 % of control | dose: 50.0 mg/kg/injection, schedule: Q04DX003 (ip), vehicle: saline with Tween-80 106 % of control | [6] 96 % of control | [3] 97 % of control and 103 % of control

C[C@H]1CC2=CC(=O)CC[C@]2(C)[C@H]2CC[C@@]3(C)[C@@H](CC[C@]3(C)O)[C@H]12
inactive: dose: 12.5 mg/kg/injection, schedule: Q01DX009 (sc), vehicle: saline 102 % of control | dose: 25.0 mg/kg/injection, schedule: Q01DX009 (ip), vehicle: saline 97 % of control | dose: 25.0 mg/kg/injection, schedule: Q01DX009 (sc), vehicle: saline 107 % of control | dose: 50.0 mg/kg/injection, schedule: Q01DX001 (sc), vehicle: steriod suspending solution 101 % of control | dose: 50.0 mg/kg/injection, schedule: Q01DX009 (ip), vehicle: saline 100 % of control | dose: 50.0 mg/kg/injection, schedule: Q01DX009 (sc), vehicle: saline 103 % of control | dose: 100.0 mg/kg/injection, schedule: Q01DX001 (sc), vehicle: steriod suspending solution 101 % of control | dose: 100.0 mg/kg/injection, schedule: Q01DX009 (ip), vehicle: saline 94 % of control | dose: 100.0 mg/kg/injection, schedule: Q01DX009 (sc), vehicle: saline 100 % of control | dose: 200.0 mg/kg/injection, schedule: Q01DX001 (sc), vehicle: steriod suspending solution 107 % of control | dose: 200.0 mg/kg/injection, schedule: Q01DX009 (ip), vehicle: acetone 96 % of control | dose: 200.0 mg/kg/injection, schedule: Q01DX009 (ip), vehicle: saline 96 % of control | dose: 200.0 mg/kg/injection, schedule: Q01DX009 (sc), vehicle: acetone 101 % of control | dose: 400.0 mg/kg/injection, schedule: Q01DX001 (sc), vehicle: steriod suspending solution 101 % of control

S=C(N/N=C/c1ccccc1Cl)Nc1ccccc1
inactive: [9] 95 % of control | [11] 100 % of control | [13] 101 % of control

O=P(Oc1ccc(S(=O)(=O)c2ccccc2)cc1)(Oc1ccc(S(=O)(=O)c2ccccc2)cc1)Oc1ccc(S(=O)(=O)c2ccccc2)cc1
inactive: [6] 90 % of control | [3] 90 % of control | [7] 93 % of control | [4] 91 % of control | [8] 91 % of control | [5] 95 % of control

NC(=O)Nc1cccc(C(F)(F)F)c1
inactive: dose: 75.0 mg/kg/injection, schedule: Q01DX001 (ip), vehicle: carboxymethylcellulose (CMC) 98 % of control | dose: 150.0 mg/kg/injection, schedule: Q01DX001 (ip), vehicle: carboxymethylcellulose (CMC) 102 % of control | dose: 300.0 mg/kg/injection, schedule: Q01DX001 (ip), vehicle: carboxymethylcellulose (CMC) 103 % of control

CSc1nc(Cl)cc2c1ncn2C1OC(CO)C(O)C1O (stereo unspecified)
inactive: dose: 100.0 mg/kg/injection, schedule: Q01DX005 (ip), vehicle: saline 100 % of control | dose: 200.0 mg/kg/injection, schedule: Q01DX005 (ip), vehicle: saline 100 % of control

CN1C(=O)CCS(=O)(=O)C1c1ccc(Cl)cc1 (stereo unspecified)
inactive: dose: 25.0 mg/kg/injection, schedule: Q01DX009 (ip), vehicle: Klucel (hydroxypropylcellulose) (HPC) 104 % of control | dose: 25.0 mg/kg/injection, schedule: Q04DX003 (ip), vehicle: Klucel (hydroxypropylcellulose) (HPC) 94 % of control | dose: 50.0 mg/kg/injection, schedule: Q01DX009 (ip), vehicle: Klucel (hydroxypropylcellulose) (HPC) 103 % of control | dose: 50.0 mg/kg/injection, schedule: Q04DX003 (ip), vehicle: Klucel (hydroxypropylcellulose) (HPC) 101 % of control | [9] 101 % of control | [10] 101 % of control | [11] 92 % of control | [12] 97 % of control | [14] 99 % of control

O=[N+]([O-])/C=C/c1ccccc1F
inactive: dose: 18.75 mg/kg/injection, schedule: Q04DX003 (ip), vehicle: Klucel (hydroxypropylcellulose) (HPC) 95 % of control | dose: 37.5 mg/kg/injection, schedule: Q04DX003 (ip), vehicle: Klucel (hydroxypropylcellulose) (HPC) 98 % of control | dose: 75.0 mg/kg/injection, schedule: Q04DX003 (ip), vehicle: Klucel (hydroxypropylcellulose) (HPC) 91 % of control

O=C(CC(=O)c1ccccc1)Nc1ccccn1
inactive: [15] 101 % of control | [16] 98 % of control

O=C1CCC([N+](=O)[O-])C(c2ccc3ccccc3c2)N1 (stereo unspecified)
inactive: dose: 100.0 mg/kg/injection, schedule: Q01DX001 (ip), vehicle: saline with Tween-80 95 % of control | dose: 200.0 mg/kg/injection, schedule: Q01DX001 (ip), vehicle: saline with Tween-80 95 % of control | dose: 400.0 mg/kg/injection, schedule: Q01DX001 (ip), vehicle: saline with Tween-80 95 % of control
